Assay [1] relates to left ventricular dp/dt max (left ventricular contractility). As to the kind of experiment: Cardiac stimulant activity in vivo: left ventricular dp/dt max in anaesthetised cats. Further details: species or system cat. The following applies: anaesthetised cats pretreated with pempidine and propranolol, intravenous.
Assay [2] has as its system guinea pig right ventricular strips. The assay is described as follows: Cardiac stimulant activity in vitro: increase in force of contraction of electrically stimulated ventricular strips. Particulars: Cavia porcellus, read-out: EC50 (50% increase in the force of contraction of the ventricular strips); 37° C., stimulated at 1.0 Hz, cumulative concentration response. The procedure:
The compounds of formula (I) and their pharmaceutically acceptable salts are tested for cardiac stimulant activity following a procedure based on that of S.C. Verma and J. H. McNeill (J. Pharm & Exp. Therapeutics, 200, 352-362 (1977)). Guinea pigs (500-700 g) of either sex are sacrificed and the hearts are quickly removed and transferred to a dissecting dish containing oxygenated bathing fluid. While in the bathing medium, the right ventricle is cut into two strips. The strips are each suspended in a 50 ml bath containing Krebs Henseleit solution at 37° C., and the bath is bubbled with 95% oxygen and 5% carbon dioxide. The ventricular strips are electrically stimulated at a frequency of 1.0 Hz, at double the threshold voltage. A resting tension of 1.0 g is applied to the strips and the tension is kept constant by readjustment during an equilibration period of 60 minutes. The bathing fluid is frequently changed during this period. When a steady base line is obtained, a compound under test is added to the bathing fluid and a cumulative concentration response curve is plotted.

Assay [3] deals with PDE (Peak III). As to the kind of experiment: Inhibition of PDE (Peak III) from cat heart. The following applies: read-out: IC50 (50% inhibition of PDE (Peak III) activity); 1 μM cyclic AMP, 37°, pH 7.5. The class given is biochemical.
Protocol: (§1) There were three major peaks which had the following characteristics:
(§2) The enzyme was assayed by incubation at 37° for 4-30 min in 50 mM Tris, 5 mM MgCl2, pH 7.5 with [3-H]cyclic nucleotide (4×10^5 disintegrations min^-1) and [14-C]nucleotide 5' monophosphate (3×10^3 disintegrations min^-1). […] The reaction mixture was diluted with 0.5 ml 100 mM HEPES (N-2-Hydroxyethyl-piperazine-N'-2-ethanesulfonic acid), 100 mM NaCl, pH 8.5, and applied to the column. […] The recovery of product as judged by [14-C]recovery was approximately 80%. All assays were linear with time of incubation and concentration of enzyme over the range used in these experiments.
The test system of assay [4] is PDE (Peak III). Particulars: eluted at 0.5 M Na acetate.
Protocol: as §1, §2
In the next assay the test system is PDE (Peak I). The assay is described as follows: Substrate kinetics of PDE (Peak I) from cat heart. The class given is biochemical.
In a further assay the test system is PDE (Peak II). Particulars: eluted at 0.3 M Na acetate.

Protocol for PDE (Peak II): as §1, §2

As for `Nc1cc(-c2ccncc2)c[nH]c1=O` [Amrinone], the duration of activity result in assay [1] is “short duration of activity”.
As for `CCC(=NC#N)Nc1ccc(C2=NNC(=O)CC2C)cc1` (centres unmarked) [Example 1, 6-[4-(N^2 -Cyanopropanimidamido)phenyl]-5-methyl-4,5-dihydro-3(2H)-pyridazinone], the ED50 in assay [1] (Felis catus, read-out: ED50 (dose to increase left ventricular dp/dt max by 50%)) amounted to 0.02 µmol/kg. The duration of activity entry in assay [1] is “long duration of activity”. In addition, in assay [2], the EC50 worked out at 65 nM. Also, the IC50 with PDE (Peak III) [3] amounted to 80 nM.
`Nc1nc2c(ncn2[C@@H]2O[C@@H]3COP(=O)(O)O[C@H]3[C@H]2O)c(=O)[nH]1` [cyclic GMP]: the Km in the assay with PDE (Peak III) [4] amounted to 2.9 µM; in the assay with PDE (Peak II), 28 µM. In addition, the “Relative Vmax” value in the assay with PDE (Peak III) [4] is recorded as 0.4; in the assay on PDE (Peak I) (50 μg/ml calmodulin added), 7.2; with PDE (Peak I) (without 50 μg/ml calmodulin), 1.1; with PDE (Peak II), 0.2.

Broadly, the IC50 is the concentration at which inhibition is half-maximal. One may read the Km as the substrate concentration at which the rate is half of its maximum.
